Experimental data from US20230032283A1, “Topical Compositions For Treating Skin Ailments” (priority 2021, published 2023).

System: skin conditions (boil, folliculitis, ingrown hair)
Assay: Empirical studies of active ingredients in topical compositions
Format: in vivo, human

Row | Molecule | relieving pain of papule-like boil or ingrown hair conditions (1% by weight in composition) | treating contemplated skin conditions (antibiotic ingredients blended into compositions)
1 | CCCCOc1ccc(OCCCN2CCOCC2)cc1 [Pramoxine] | effective | 
2 | bacitracin zinc |  | effective
